In US8293537B2, “Systems and methods for hemoglobin analysis” (priority 2010, dated 2012):
Several values for one entry are separate records, joined by “and”; a condition that tells them apart may be missing. Equal values may be shown once.

Columns and labels:
Format in all cases: biochemical
[1] = tested on: peroxidase; assay: Peroxidase assay in saliva (Amplex Red); conditions: 500 ppm; pooled or unpooled saliva; 30 minutes; FIGS. 26-29
Description: To determine the effect of various GRAS compounds as inhibitors of peroxidase activity, a standard assay using Amplex® Red (Life Technologies), which releases a fluorescent oxidation product.
The test compounds, such as GRAS materials or cocktails of same, were prepared at a concentration of 500 ppm in distilled water. For the assay, 50 μl samples of test compounds were mixed with 20-30 μl of saliva (either “pooled” or “unpooled”) prior to the addition of Amplex® Red. […] Reactions were allowed to run for 30 minutes during these assays.

[2] = target: T1, Lysozyme (Homo sapiens, UniProt P61626); assay: Lysozyme inhibition saliva screening (fluorescein-labeled Micrococcus lysodeikticus); conditions: 100% saliva samples (data not shown)
T1 sequence (P61626 19-148): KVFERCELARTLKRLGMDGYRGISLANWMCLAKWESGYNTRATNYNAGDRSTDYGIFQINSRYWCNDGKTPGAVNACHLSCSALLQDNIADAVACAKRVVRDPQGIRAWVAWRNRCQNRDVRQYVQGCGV
Description: Further details of these five compounds may also be seen in Table 5.

[3] = target: T2, α-amylase (Homo sapiens, UniProt P0DUB6); assay: α-Amylase inhibition saliva screening (chromogenic substrate, 405 nm); conditions: for Ave (absorbance at 405 nm) / individual reading (absorbance at 405 nm): saliva; for Ave (absorbance at 405 nm): 5,000 ppm; for individual reading (absorbance at 405 nm): test compound prepared at 5,000 ppm, 37° C.; for α-Amylase inhibition: 100% saliva samples, FIG. 11
T2 sequence (P0DUB6 16-511): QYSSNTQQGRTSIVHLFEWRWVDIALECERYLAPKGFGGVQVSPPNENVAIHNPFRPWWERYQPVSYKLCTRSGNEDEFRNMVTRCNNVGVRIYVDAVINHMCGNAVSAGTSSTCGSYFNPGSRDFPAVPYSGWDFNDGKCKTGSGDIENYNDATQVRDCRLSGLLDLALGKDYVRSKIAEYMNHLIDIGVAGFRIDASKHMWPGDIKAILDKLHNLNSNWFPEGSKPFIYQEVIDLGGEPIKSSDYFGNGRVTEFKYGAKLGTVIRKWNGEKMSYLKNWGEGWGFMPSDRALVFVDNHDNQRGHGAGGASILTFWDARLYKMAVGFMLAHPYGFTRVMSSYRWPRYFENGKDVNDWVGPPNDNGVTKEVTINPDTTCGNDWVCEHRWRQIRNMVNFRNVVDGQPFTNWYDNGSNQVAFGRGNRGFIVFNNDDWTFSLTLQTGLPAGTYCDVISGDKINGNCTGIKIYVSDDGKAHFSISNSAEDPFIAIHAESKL
Description: Further details of these five compounds may also be seen in Table 4.

**Q.** How did the peroxidase inhibition [1] turn out when `Cn1c(=O)c2c(ncn2C)n(C)c1=O` [CDI-33, Caffeine] was run?
**A.** Its peroxidase inhibition is “showed significant peroxidase inhibition capabilities”.

**Q.** For `COc1ccc(O)c(C(C)(C)C)c1` [CDI-39, 3-tert--butyl-hydroxyanisole], which peroxidase inhibition [1] is on record?
**A.** Its peroxidase inhibition is “showed significant peroxidase inhibition capabilities”.

**Q.** With `O=C(O)c1ccccc1` [CDI-40, Benzoic acid] as the compound, how does the Lysozyme inhibition [2] read?
**A.** Its Lysozyme inhibition is “shown to inhibit Lysozyme”.

**Q.** Which “Ave (absorbance at 405 nm)” value ([3]; 0 min) does the source give for “Aluminum potassium sulfate dodecahydrate [CDI-42]” here?
**A.** Its value is 0.92.

**Q.** What about the “individual reading (absorbance at 405 nm)” value (“individual reading” below) ([3]; 0 min) of the same compound?
**A.** The value was 0.80 and 1.13 and 0.90 and 0.84.

**Q.** And the α-Amylase inhibition [3]?
**A.** The α-Amylase inhibition was “shown to inhibit α-Amylase”.

**Q.** And the “individual reading” value ([3]; 5 min)?
**A.** Its value is 1.65 and 2.15 and 1.80 and 1.81.

**Q.** And the “individual reading” value ([3]; 15 min)?
**A.** Its value is 2.37 and 2.38 and 2.25 and 2.17.

**Q.** And the peroxidase inhibition [1]?
**A.** The peroxidase inhibition was “showed significant peroxidase inhibition capabilities”.

**Q.** For Aluminum sulfate hydrate [CDI-34], which “Ave (absorbance at 405 nm)” value ([3]; 0 min) is on record?
**A.** Its value is 0.40.

**Q.** What about the “individual reading” value ([3]; 0 min, sulfate hydrate) of the same compound?
**A.** The value was 0.40 (2×) and 0.36 and 0.45.

**Q.** And the α-Amylase inhibition [3]?
**A.** Its α-Amylase inhibition is “shown to inhibit α-Amylase”.

**Q.** What about the “Ave (absorbance at 405 nm)” value ([3]; 5 min) of the same compound?
**A.** Its value is 0.50.

**Q.** What about the “individual reading” value ([3]; 5 min, sulfate hydrate) of the same compound?
**A.** Its value is 0.49 and 0.50 (2×) and 0.52.

**Q.** What about the “Ave (absorbance at 405 nm)” value ([3]; 15 min) of the same compound?
**A.** Its value is 0.56.

**Q.** And the “individual reading” value ([3]; 15 min, sulfate hydrate)?
**A.** The value was 0.53 and 0.61 and 0.54 and 0.56.
